Key:
Experiment in all cases: radiometric filter-binding kinase assay, Kinase HotSpot
Settings in all cases: compound 0.5 µM; ATP 10 µM
[1] = molecular target: ABL2 (human) (UniProt P42684)
[2] = molecular target: TLK2 (human) (UniProt Q86UE8)
[3] = molecular target: NTRK1 (human) (UniProt P04629)
[4] = molecular target: GRK4 (human) (UniProt P32298)
[5] = molecular target: RPS6KA4 KD2 (human) (UniProt O75676)
[6] = molecular target: BTK (human) (UniProt Q06187)
[7] = molecular target: PRKD1 (human) (UniProt Q15139)
[8] = molecular target: OXSR1 (human) (UniProt O95747)
[9] = molecular target: CDC42BPA (human) (UniProt Q5VT25)
[10] = molecular target: RPS6KB2 (human) (UniProt Q9UBS0)
[11] = molecular target: FGFR2 (human) (UniProt P21802)
[12] = molecular target: FGR (human) (UniProt P09769)
[13] = molecular target: MYO3B (human) (UniProt Q8WXR4)
[14] = molecular target: DMPK (human) (UniProt Q09013)
[15] = molecular target: JAK3 JH1 JH2 (human) (UniProt P52333)
[16] = molecular target: SIK2 (human) (UniProt Q9H0K1)
[17] = molecular target: PLK2 (human) (UniProt Q9NYY3)
[18] = molecular target: PRKCD (human) (UniProt Q05655)
[19] = molecular target: NEK2 (human) (UniProt P51955)
[20] = molecular target: AKT1 (human) (UniProt P31749)
[21] = molecular target: TAOK2 (human) (UniProt Q9UL54)
[22] = molecular target: WEE1 (human) (UniProt P30291)
[23] = molecular target: MAPK10 (human) (UniProt P53779)
[24] = molecular target: EPHA8 (human) (UniProt P29322)
[25] = molecular target: RPS6KA1 KD1 KD2 (human) (UniProt Q15418)
[26] = molecular target: EPHB2 (human) (UniProt P29323)
[27] = molecular target: JAK1 JH1 catalytic (human) (UniProt P23458)
[28] = molecular target: AURKA (human) (UniProt O14965)
[29] = molecular target: CDC42BPB (human) (UniProt Q9Y5S2)
[30] = molecular target: CAMK2A (human) (UniProt Q9UQM7)
[31] = molecular target: FGFR1 (human) (UniProt P11362)
[32] = molecular target: MAP2K1 (human) (UniProt Q02750)
[33] = molecular target: IRAK1 (human) (UniProt P51617)
[34] = molecular target: TNK2 (human) (UniProt Q07912)
[35] = molecular target: SRPK3 (human) (UniProt Q9UPE1)
[36] = molecular target: DYRK1B (human) (UniProt Q9Y463)
[37] = molecular target: ALK (human) (UniProt Q9UM73)
[38] = molecular target: GSG2 (human) (UniProt Q8TF76)
[39] = molecular target: PAK7 (human) (UniProt Q9P286)
[40] = molecular target: CDK4 CCND1 (human) (UniProt P24385+P11802)
[41] = molecular target: MAPK9 (human) (UniProt P45984)
[42] = molecular target: CDK5 CDK5R1 p35 (human) (UniProt Q00535+Q15078)

Sequence of DMPK (human) (Q09013 whole entry, looked up): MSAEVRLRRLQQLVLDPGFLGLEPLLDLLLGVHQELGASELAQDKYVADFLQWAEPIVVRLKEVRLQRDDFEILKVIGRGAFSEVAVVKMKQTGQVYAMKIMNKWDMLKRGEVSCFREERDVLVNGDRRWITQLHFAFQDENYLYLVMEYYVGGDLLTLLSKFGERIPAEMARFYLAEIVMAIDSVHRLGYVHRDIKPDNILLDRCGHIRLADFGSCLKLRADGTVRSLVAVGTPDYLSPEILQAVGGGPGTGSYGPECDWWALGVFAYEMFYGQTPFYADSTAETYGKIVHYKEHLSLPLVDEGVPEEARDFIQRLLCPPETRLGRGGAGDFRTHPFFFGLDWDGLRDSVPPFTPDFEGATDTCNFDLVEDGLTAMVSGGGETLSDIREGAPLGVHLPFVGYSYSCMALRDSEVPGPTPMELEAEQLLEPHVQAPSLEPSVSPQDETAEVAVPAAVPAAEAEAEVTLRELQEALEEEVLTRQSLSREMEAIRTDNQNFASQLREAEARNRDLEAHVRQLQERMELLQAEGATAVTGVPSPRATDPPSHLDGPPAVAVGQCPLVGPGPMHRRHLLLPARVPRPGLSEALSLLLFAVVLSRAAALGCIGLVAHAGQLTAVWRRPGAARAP
Sequence of NTRK1 (human) (P04629 whole entry, looked up): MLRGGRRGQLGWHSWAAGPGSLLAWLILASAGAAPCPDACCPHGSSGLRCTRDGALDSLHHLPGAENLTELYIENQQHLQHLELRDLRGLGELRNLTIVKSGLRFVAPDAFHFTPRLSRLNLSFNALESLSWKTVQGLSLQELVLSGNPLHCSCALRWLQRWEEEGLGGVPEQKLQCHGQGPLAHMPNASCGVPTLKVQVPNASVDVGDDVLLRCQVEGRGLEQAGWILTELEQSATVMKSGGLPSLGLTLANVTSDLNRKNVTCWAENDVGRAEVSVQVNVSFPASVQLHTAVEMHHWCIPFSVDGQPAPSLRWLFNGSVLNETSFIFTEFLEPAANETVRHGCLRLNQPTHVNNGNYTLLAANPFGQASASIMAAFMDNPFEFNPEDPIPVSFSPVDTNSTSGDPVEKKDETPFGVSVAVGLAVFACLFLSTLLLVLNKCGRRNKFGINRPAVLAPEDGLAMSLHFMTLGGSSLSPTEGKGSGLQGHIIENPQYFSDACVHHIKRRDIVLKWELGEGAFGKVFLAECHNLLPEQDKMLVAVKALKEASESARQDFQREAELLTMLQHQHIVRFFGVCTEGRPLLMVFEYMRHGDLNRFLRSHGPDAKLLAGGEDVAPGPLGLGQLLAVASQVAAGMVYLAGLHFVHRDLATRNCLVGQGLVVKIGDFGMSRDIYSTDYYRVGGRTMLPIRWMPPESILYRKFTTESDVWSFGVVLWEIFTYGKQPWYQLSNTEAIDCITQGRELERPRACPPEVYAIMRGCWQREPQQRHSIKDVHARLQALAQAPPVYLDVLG
Sequence of PLK2 (human) (Q9NYY3 whole entry, looked up): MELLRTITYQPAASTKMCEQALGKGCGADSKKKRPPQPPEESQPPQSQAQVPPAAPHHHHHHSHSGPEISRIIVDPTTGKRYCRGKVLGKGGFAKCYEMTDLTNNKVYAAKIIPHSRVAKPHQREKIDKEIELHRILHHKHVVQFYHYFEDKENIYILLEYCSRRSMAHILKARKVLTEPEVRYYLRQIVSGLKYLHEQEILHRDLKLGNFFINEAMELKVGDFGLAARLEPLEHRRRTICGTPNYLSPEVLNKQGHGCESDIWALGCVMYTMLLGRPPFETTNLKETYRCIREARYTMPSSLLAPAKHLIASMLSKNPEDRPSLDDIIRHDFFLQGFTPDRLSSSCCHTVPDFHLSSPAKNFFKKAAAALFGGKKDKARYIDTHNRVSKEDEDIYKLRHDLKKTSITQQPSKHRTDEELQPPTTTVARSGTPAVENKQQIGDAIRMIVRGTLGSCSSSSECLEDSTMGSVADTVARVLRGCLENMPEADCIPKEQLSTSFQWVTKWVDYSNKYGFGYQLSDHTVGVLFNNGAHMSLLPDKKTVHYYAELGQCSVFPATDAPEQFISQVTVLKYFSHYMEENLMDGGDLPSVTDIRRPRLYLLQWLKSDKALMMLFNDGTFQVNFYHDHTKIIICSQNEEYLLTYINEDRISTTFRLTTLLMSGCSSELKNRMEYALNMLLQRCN
Sequence of CDC42BPB (human) (Q9Y5S2 whole entry, looked up): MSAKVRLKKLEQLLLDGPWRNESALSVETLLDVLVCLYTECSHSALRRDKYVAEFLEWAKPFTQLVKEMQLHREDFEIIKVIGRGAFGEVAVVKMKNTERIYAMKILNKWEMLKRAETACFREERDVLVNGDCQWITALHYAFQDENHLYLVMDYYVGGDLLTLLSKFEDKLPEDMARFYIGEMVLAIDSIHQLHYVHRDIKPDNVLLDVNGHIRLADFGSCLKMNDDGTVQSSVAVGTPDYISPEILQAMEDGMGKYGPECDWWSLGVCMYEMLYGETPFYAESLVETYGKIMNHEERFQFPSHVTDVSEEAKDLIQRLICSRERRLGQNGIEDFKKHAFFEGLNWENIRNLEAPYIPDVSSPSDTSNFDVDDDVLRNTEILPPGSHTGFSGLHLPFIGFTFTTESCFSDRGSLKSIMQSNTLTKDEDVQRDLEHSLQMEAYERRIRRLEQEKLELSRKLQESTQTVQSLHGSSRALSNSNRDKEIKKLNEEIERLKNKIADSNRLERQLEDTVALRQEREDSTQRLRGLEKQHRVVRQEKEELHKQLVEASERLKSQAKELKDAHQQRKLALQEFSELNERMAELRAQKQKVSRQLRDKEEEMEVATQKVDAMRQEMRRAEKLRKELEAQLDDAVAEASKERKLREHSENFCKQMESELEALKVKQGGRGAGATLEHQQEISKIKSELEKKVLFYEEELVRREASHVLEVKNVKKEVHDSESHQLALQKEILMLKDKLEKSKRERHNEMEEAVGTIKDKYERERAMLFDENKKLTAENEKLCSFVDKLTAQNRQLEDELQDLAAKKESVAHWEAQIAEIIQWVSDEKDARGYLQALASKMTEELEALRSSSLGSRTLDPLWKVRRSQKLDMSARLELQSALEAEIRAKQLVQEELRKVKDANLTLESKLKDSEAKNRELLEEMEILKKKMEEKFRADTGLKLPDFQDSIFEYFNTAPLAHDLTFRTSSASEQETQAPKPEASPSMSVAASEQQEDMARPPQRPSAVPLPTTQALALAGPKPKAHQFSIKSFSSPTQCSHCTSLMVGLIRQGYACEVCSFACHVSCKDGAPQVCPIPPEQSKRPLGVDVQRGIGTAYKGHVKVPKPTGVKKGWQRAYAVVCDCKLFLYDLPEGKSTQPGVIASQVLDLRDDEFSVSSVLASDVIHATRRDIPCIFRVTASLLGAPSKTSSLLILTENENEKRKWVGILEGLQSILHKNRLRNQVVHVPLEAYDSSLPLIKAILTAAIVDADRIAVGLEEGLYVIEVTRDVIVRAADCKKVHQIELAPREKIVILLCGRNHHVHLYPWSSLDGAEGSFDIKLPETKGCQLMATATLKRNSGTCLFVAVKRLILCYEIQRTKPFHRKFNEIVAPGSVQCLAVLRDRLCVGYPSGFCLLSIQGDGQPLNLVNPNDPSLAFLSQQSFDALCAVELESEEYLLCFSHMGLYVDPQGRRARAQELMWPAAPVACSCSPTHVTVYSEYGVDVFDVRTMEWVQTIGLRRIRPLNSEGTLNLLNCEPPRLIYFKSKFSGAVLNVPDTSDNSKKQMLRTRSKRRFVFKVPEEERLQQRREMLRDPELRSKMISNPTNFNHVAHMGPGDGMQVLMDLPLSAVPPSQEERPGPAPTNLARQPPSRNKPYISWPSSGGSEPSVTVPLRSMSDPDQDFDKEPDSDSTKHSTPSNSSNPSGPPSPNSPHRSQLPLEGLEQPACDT
Sequence of BTK (human) (Q06187 whole entry, looked up): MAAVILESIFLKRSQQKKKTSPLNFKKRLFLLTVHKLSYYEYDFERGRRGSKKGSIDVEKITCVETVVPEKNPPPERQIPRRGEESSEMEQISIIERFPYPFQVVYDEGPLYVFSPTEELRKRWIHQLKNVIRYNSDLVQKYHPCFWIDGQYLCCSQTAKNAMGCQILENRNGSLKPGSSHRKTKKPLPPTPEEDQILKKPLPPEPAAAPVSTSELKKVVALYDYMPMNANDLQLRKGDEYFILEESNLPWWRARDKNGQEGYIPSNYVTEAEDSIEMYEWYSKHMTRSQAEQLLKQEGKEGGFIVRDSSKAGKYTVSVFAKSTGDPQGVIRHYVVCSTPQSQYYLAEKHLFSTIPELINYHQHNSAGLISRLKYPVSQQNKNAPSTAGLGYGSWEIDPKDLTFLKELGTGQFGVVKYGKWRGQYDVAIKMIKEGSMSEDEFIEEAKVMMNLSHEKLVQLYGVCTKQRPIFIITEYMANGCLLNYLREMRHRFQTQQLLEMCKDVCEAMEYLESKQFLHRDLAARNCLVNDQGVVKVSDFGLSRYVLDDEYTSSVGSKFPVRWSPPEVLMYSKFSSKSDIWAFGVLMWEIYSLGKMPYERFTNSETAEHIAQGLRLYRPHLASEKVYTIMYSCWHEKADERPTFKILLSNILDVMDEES
Sequence of NEK2 (human) (P51955 whole entry, looked up): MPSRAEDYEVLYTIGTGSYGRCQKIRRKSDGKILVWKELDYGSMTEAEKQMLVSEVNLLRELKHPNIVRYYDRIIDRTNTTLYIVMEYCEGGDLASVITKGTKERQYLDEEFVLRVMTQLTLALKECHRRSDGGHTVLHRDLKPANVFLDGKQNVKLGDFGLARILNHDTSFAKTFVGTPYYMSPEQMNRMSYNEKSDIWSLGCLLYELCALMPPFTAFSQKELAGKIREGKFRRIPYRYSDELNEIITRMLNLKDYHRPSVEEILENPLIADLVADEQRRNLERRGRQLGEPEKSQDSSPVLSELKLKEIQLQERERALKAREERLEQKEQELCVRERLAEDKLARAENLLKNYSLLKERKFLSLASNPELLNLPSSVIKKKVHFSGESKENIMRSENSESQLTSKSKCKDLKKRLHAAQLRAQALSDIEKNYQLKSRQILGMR

## O=C1NC(=O)C(c2cn(CCCn3ccnc3)c3ccccc23)=C1Nc1ccccc1
[1]
  residual activity: 91.8%
[2]
  residual activity: 74.1%
[3]
  residual activity: 104%
[4]
  residual activity: 91.6%
[5]
  residual activity: 44.4%
[6]
  residual activity: 105%
[7]
  residual activity: 94.4%
[8]
  residual activity: 97.2%
[9]
  residual activity: 95.2%
[10]
  residual activity: 86.1%
[11]
  residual activity: 103%
[12]
  residual activity: 86.3%
[13]
  residual activity: 36%
[14]
  residual activity: 104%
[15]
  residual activity: 7.97%
[16]
  residual activity: 90.3%
[17]
  residual activity: 101%
[18]
  residual activity: 19.3%
[19]
  residual activity: 106%
[20]
  residual activity: 101%
[21]
  residual activity: 92.3%
[22]
  residual activity: 95.8%
[23]
  residual activity: 100%
[24]
  residual activity: 104%
[25]
  residual activity: 7.54%
[26]
  residual activity: 98.4%
[27]
  residual activity: 82.1%
[28]
  residual activity: 78.8%
[29]
  residual activity: 105%
[30]
  residual activity: 95.5%
[31]
  residual activity: 78.5%
[32]
  residual activity: 90.6%
[33]
  residual activity: 118%
[34]
  residual activity: 65.9%
[35]
  residual activity: 92.5%
[36]
  residual activity: 56.3%
[37]
  residual activity: 97.7%
[38]
  residual activity: 95.8%
[39]
  residual activity: 94.2%
[40]
  residual activity: 99.1%
[41]
  residual activity: 101%
[42]
  residual activity: 91.4%

## O=C1Nc2ccc(Cl)cc2/C1=C/c1cc(Cl)c(O)c(Cl)c1
[1]
  residual activity: 80.4%
[2]
  residual activity: 105%
[3]
  residual activity: 87.4%
[4]
  residual activity: 108%
[5]
  residual activity: 98%
[6]
  residual activity: 92.1%
[7]
  residual activity: 91.5%
[8]
  residual activity: 91.6%
[9]
  residual activity: 96.1%
[10]
  residual activity: 98.2%
[11]
  residual activity: 92%
[12]
  residual activity: 84.8%
[13]
  residual activity: 17.4%
[14]
  residual activity: 112%
[15]
  residual activity: 100%
[16]
  residual activity: 95%
[17]
  residual activity: 95.4%
[18]
  residual activity: 86.7%
[19]
  residual activity: 86%
[20]
  residual activity: 97.9%
[21]
  residual activity: 81.3%
[22]
  residual activity: 79.1%
[23]
  residual activity: 98.8%
[24]
  residual activity: 91.5%
[25]
  residual activity: 48.4%
[26]
  residual activity: 90.9%
[27]
  residual activity: 103%
[28]
  residual activity: 64.2%
[29]
  residual activity: 91.4%
[30]
  residual activity: 92.9%
[31]
  residual activity: 90.8%
[32]
  residual activity: 96.8%
[33]
  residual activity: 95.4%
[34]
  residual activity: 32.4%
[35]
  residual activity: 88.3%
[36]
  residual activity: 90.9%
[37]
  residual activity: 65.8%
[38]
  residual activity: 8.65%
[39]
  residual activity: 91.5%
[40]
  residual activity: 94.7%
[41]
  residual activity: 100%
[42]
  residual activity: 94.5%
